# Test results taken from patent US7407760B2 (priority 2003, dated 2008).
# Like-named read-outs stand apart in the source and are kept apart here.
# Assays:
# Hamster Sc237 PrP^Sc = Hamster Sc237 PrP^Sc (Mesocricetus auratus, UniProt P04273); type: biochemical
# PrP^C = PrP^C (Mesocricetus auratus, UniProt P04273)
# PrP^C/PrP^Sc binding = PrP^C/PrP^Sc binding (Mesocricetus auratus, UniProt P04273)
# PrP^Sc [1] = target: T1, PrP^Sc (Mesocricetus auratus, UniProt P04273); type: biochemical, hamster; conditions: for IC50: read-out: IC50 of inhibition of PrP^Sc amplification; for effect on inhibition by CuCl2, added prior to CuCl2: 4 mM EDTA or 50 mM imidazole prior to 1 μM CuCl2; for effect on inhibition by CuCl2, added shortly after CuCl2: after 1 μM CuCl2; for effect of chelating compounds on PrP^Sc amplification: no metal added
# T1 sequence (P04273 23-231 limits assumed): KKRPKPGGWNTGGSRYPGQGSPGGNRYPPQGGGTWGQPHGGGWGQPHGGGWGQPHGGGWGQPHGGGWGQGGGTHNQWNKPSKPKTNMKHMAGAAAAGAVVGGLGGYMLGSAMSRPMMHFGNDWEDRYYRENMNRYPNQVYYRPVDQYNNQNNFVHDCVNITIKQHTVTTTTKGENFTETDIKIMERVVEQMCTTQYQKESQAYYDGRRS
# PrP^Sc [2] = target: T1, PrP^Sc; type: biochemical, hamster
# [3] = target: Syrian hamster Sc237 PrP27-30 / immunopurified hamster PrP^C (Mesocricetus auratus, UniProt P04273); type: biochemical
# Sequence of Syrian hamster Sc237 PrP27-30 / immunopurified hamster PrP^C (P04273 23-231 limits assumed): as above
# PrP^Sc [4] = target: T1, PrP^Sc; type: biochemical, hamster; remark: listed apart in the source
# PrP^Sc [5] = target: T1, PrP^Sc
# Sequence of Hamster Sc237 PrP^Sc (P04273 23-231 limits assumed): as above
# Sequence of PrP^C (P04273 23-231 limits assumed): as above
# Sequence of PrP^C/PrP^Sc binding (P04273 23-231 limits assumed): as above
compound,measurement,setting,value
Nc1ccn([C@@H]2O[C@H](CO)[C@@H](OP(=O)(O)O)[C@H]2O)c(=O)n1 [3′-cytidine monophosphate],inhibition of PrP^Sc amplification by RNase end-product nucleotides,Hamster Sc237 PrP^Sc; concentrations up to 1 mM,Neither of these nucleotides inhibited PrP^Sc amplification
[Cl][Cu][Cl] [CuCl2],quantity or protease-resistance of input PrP^C or PrP^Sc molecules by themselves,PrP^C,did not affect the quantity or protease-resistance
same,"PrP^C/PrP^Sc binding, ratio of PrP^C to PrP27-30 in the pellet",PrP^C/PrP^Sc binding,0.46
same,IC50,PrP^Sc [1],~1 µM
O=C(O)CN(CCN(CC(=O)O)CC(=O)O)CC(=O)O [EDTA],"effect on inhibition by CuCl2, added prior to CuCl2",PrP^Sc [1],prevented inhibition of PrP^Sc amplification
same,"effect on inhibition by CuCl2, added shortly after CuCl2",PrP^Sc [1],failed to rescue PrP^Sc amplification
same,effect of chelating compounds on PrP^Sc amplification,PrP^Sc [1],not influenced
[Cl][Mn][Cl] [MnCl2],effect of divalent metal compound on PrP^Sc amplification,PrP^Sc [1],neither MnCl2 nor CoCl2 affected PrP^Sc amplification
same,effect of pre-addition on CuCl2-mediated inhibition of PrP^Sc amplification,PrP^Sc [1],did not influence the potency of CuCl2-mediated inhibition
[Cl-].[Cl-].[Zn+2] [ZnCl2],IC50,PrP^Sc [1],~10 µM
"Nc1nc2c(ncn2[C@@H]2O[C@H](CO)[C@H]3OP(=O)(O)O[C@H]32)c(=O)[nH]1 [cyclic 2′,3′-GMP, 2′,3′-cyclic guanosine monophosphate]",inhibition of PrP^Sc amplification by RNase end-product nucleotides,Hamster Sc237 PrP^Sc,Neither of these nucleotides inhibited PrP^Sc amplification
c1c[nH]cn1 [imidazole],"effect on inhibition by CuCl2, added prior to CuCl2",PrP^Sc [1],prevented inhibition of PrP^Sc amplification
same,"effect on inhibition by CuCl2, added shortly after CuCl2",PrP^Sc [1],failed to rescue PrP^Sc amplification
same,effect on PrP^Sc amplification of preparation “X”,PrP^Sc [2]; 5 mM,restored PrP^Sc amplification
same,effect on PrP^Sc amplification of preparation “X”,PrP^Sc [2]; 50 mM,restored the ability of this preparation to serve as a substrate
same,effect on PrP^Sc amplification of preparation “X”,PrP^Sc [2]; 250 mM,inhibited PrP^Sc amplification
Cc1ccc2ccc3ccc(C)nc3c2n1 [neocuproine],effect of chelating compounds on PrP^Sc amplification,PrP^Sc [1],not influenced
DNase,effect of added enzyme on PrP^Sc amplification,Hamster Sc237 PrP^Sc,did not decrease PrP^Sc amplification
Sodium pentosan polysulfate [pentosan sulfate],stimulation of PrP^Sc amplification,[3],stimulated PrP^Sc amplification only moderately
apyrase,effect of added enzyme on PrP^Sc amplification,Hamster Sc237 PrP^Sc,no effect
glycogen,stimulation of PrP^Sc amplification using purified substrate,[3],did not stimulate the formation of PrP^Sc
heparan sulfate,stimulation of PrP^Sc amplification in the presence of copper,[3],No apparent stimulation
same,stimulation of PrP^Sc amplification using purified substrate,[3],no effect
heparan sulfate proteoglycan,reconstitution of PrP^Sc amplification,PrP^Sc [4],failed to reconstitute PrP^Sc amplification
same,stimulation of PrP^Sc amplification,[3],stimulated PrP^Sc amplification only moderately
heparinase III,effect of added enzyme on PrP^Sc amplification,Hamster Sc237 PrP^Sc,no effect
poly(C),stimulation of PrP^Sc amplification using purified substrate,[3],failed to stimulate PrP^Sc amplification at all concentrations tested
poly(U),stimulation of PrP^Sc amplification using purified substrate,[3],potently stimulated PrP^Sc amplification
polyadenylic acid [poly(A)],propagation of PrP^Sc conformation in serial PMCA,PrP^Sc [5],stimulated the propagation process
same,reconstitution of PrP^Sc amplification,PrP^Sc [4],failed to reconstitute PrP^Sc amplification
same,concentration at which PrP^Sc amplification was stimulated,[3],1 µg/mL
same,threshold size required for stimulation of PrP^Sc amplification,[3],~300 bases
polyglutamic acid [polyglutamate],reconstitution of PrP^Sc amplification,PrP^Sc [4]; benzonase-pretreated normal brain homogenate,failed to reconstitute PrP^Sc amplification
same,level of stimulation compared with control stimulation by total hamster RNA,[3]; purified substrate,less than the level of control stimulation
